Values after ≈ are worked out from the molar mass of the structure shown. Where two headings read alike, the source gives them in different places.
Tests used:
CCD-18Co cells [1] = experiment: Western blot of α-SMA and COL1A1 in activated CCD-18Co cells; format: cell-based, human; settings: 10 μM, 96 h
Procedure: (§1) LX2 and CCD-18Co were seeded in 6 well plate. Twenty-four hours later, cells were washed and starved with Alpha MEM medium without FBS for 24 h. The cells were then washed and the media was replaced with Alpha MEM supplemented with 10% FBS containing 5 ng/ml TGF-β and activated for 48 h. […] The cells were then washed three times with cold PBS and treated with protein lysis RIPA buffer with complete protease inhibitor cocktail. Protein concentration was determined with Pierce BCA protein Assay Kit. 20 μg of total protein lysate from each treatment group was loaded into each well of a Mini-Protean TGX gel (4-15%), and electrophoresis was performed using 1× Tris/Glycine/SDS Buffer. Proteins were then transferred to nitrocellulose membranes using 1× Tris/Glycine with methanol. Membranes were blocked with Intercept (TBS) blocking buffer for 1 h at room temperature and then incubated with anti-α-SMA antibody (1:1000), and COL1A1 antibody (1:1000) at 4° C. overnight. Membranes were washed with TBS-0.1% Tween three times for 10 min each, and then incubated in IRDye-Secondary antibodies (1:10,000) at room temperature for 1 h. The membranes were then washed with TBS-0.1% Tween three times for 10 min each and rinsed with 1×TBS to remove residual Tween20. Membranes were then scanned with an Odyssey Image System (Li-Cor, Lincoln, NE, USA).

[2] = system: human hepatic stellate cells (LX2); experiment: Western blot of α-SMA and COL1A1 in activated LX2 cells; format: cell-based; settings: activated LX2, 10 μM, 96 h
Procedure: as §1

[3] = In vitro drug release under accelerated conditions (rapid equilibrium dialysis); format: physicochemical
Procedure: Sul-NC (5 mg/mL, 50 μL) were placed in a rapid equilibrium dialysis s(RED) device with an 8 kDa molecular weight cutoff (n=3). The outer reservoir was filled with 1 mL of 0.5% Tween 80 in phosphate buffered saline (PBS-T) solution. The samples were incubated on an orbital shaker with temperature control at 37° C. and 300 rpm. Every 24 h, 1 mL of the solution was collected and replenished with fresh 1 mL PBS-T solution. […] Mobile phase A was water containing 0.1% trifluoroacetic acid (TFA) and mobile phase B was acetonitrile containing 0.1% TFA. The isocratic flow was composed 70% of mobile phase A and 30% mobile phase B at 1 mL/min flow rate for 10 min. […] The drug amount was quantified and used to calculate the accumulation percentage. The release curves were plotted with GraphPad Prism 9 (San Diego, CA).

physchem = format: physicochemical
[4] = mouse, in vivo, sc, 50 mg/kg
Procedure: Each treatment group contain 3-9 mice. […] MTD was injected and blood were taken for liver and kidney function test (Table 5).

[5] = system: bleomycin-induced mouse skin fibrosis model; experiment: Bleomycin-induced skin fibrosis model; format: in vivo; settings: 4 weeks
Procedure: There is a paucity of animal models of GI tract fibrosis/strictures. Li et al., 2021. To obtain preliminary evidence regarding efficacy of Sul-NC as antifibrotic in vivo, a well-described and reproducible bleomycin-induced rodent skin fibrosis model was used. Yamamoto et al., 1999. To induce fibrosis, bleomycin was injected in mouse skin at five spots within a 1×1 cm region on the back every other day for four weeks (FIG. 3), as previously described. Yamamoto et al., 1999. […] In addition, the Masson's Trichrome staining confirmed that the thickness of the dermis was due to deposition of collagen and other ECM proteins (blue staining in the figure). Of note, there was a striking difference between the dose and frequency of administration when comparing pirfenidone (daily dosing, total dose 2,800 mg/kg) vs Sul-NC (once weekly, total dose 200 mg/kg).
5-8 week old male C57BL/6J mice were utilized for bleomycin induced skin fibrosis model. The upper back was shaved, and 100 μL bleomycin (0.5 mg/ml in PBS) was injected subcutaneously every other day into one of five sectors in a defined 1-cm^2 area (see FIG. 3). […] Five representative images for each mouse were taken to quantify skin dermal thickness. For each image, five different areas were measured by a masked observer with image J Fiji (NIH, Bethesda, MD). Data were analyzed with GraphPad Prism 9 (San Diego, CA, USA).

C57BL/6J mice = settings: both, mouse, in vivo; for Survival: ip
in vivo = settings: both, C57BL/6J, mouse, sc
[6] = topical dosing; cited from earlier work
[7] = system: human primary colonic fibroblasts (CCD-18Co) activated with TGF-β; experiment: High throughput microscopy-based drug screening (α-SMA and COL1A1 immunocytochemistry); format: cell-based; settings: TGF-β-activated CCD-18Co, 4 mM
Description: To identify potential antifibrotic agents, a high-throughput microscope-based drug screening approach using human primary colonic fibroblasts (CCD-18Co) activated with transforming growth factor-β (TGF-β) was used. A panel of 1,586 FDA-approved small molecule drugs were then screened for their ability to reduce expression of α-SMA and type 1 collagen (COL1A1) as assessed by fluorescent immunocytochemistry. Based on its known antifibrotic effects, pirfenidone was included in this screen and found effective at a dose of 4 mM (FIG. 1A).
Human primary colonic fibroblasts (CCD-18Co) were seeded in 96 well flat bottom plate. Twenty-four hours later, cells were washed and starved with alpha-MEM medium without FBS for 24 h. The cells were then washed and the media was replaced with alpha-MEM supplemented with 10% FBS containing 5 ng/ml TGF-β and activated for 48 h. The cells were then washed again and fresh medium containing 5 ng/ml TGF-β and 10 μM of a drug from a library of 1,586 FDA approved small molecules was applied to the cells. After 4 days, the cells were fixed with 10% neutral formalin for 15 min and permeabilized with 0.5% Triton X-100 in PBS. […] Images were analyzed with Image J2 Fiji (NIH, Bethesda, MD) to determine the drug treatment efficacy as assessed by reduction in the intensity of α-SMA and collagen staining per cell. […]

CCD-18Co cells [8] = experiment: RT-PCR of α-SMA (ACTA2) expression in activated CCD-18Co cells; format: cell-based, human
Procedure: (§2) RNA was extracted using TRIzol Reagent as previously described. Li et al., 2017. RNAs were reverse transcribed into cDNA with ReverAid First Strand cDNA synthesis kit. SYBR Green PCR Master Mix kit was utilized for the real time PCR using a QuantStudio 3 PCR machine (Applied Biosystems, Waltham, MA). Primers used are detailed in Table 6. Each reaction was performed in triplicate for each primer with a no-template negative control. QuantStudio Design and Analysis Software 1.5.2 was used to analyze the data using the ΔΔCT method.

LX2 cells = experiment: RT-PCR of α-SMA (ACTA2) expression in activated LX2 cells; format: cell-based, human; settings: activated LX-2
Procedure: as §2

[9] = system: small intestine fibrosis mouse model; experiment: Mouse intestine transplant fibrosis model; format: in vivo; settings: three times daily oral 100 mg/kg for 7 days
Procedure: An intestine transplantation model (FIG. 6) that was previously used to validate the antifibrotic efficacy of oral pirfenidone was employed. Meier et al., 2016. Sul-NC at a dose of 50 mg/kg or 150 mg/kg was given as a single injection at the site of the transplant and compared to oral pirfenidone at the dose previously described to be effective in the model, three times daily oral dosing with 100 mg/kg. […] Again, there was a striking difference between the dose and frequency of administration when comparing pirfenidone (three times daily dosing, total dose 2,100 mg/kg) vs Sul-NC (single dose, 50 mg/kg).
5-8 week old male C57BL/6J mice were utilized in an intestine transplantation model with minor modifications (FIG. 6). Meier et al., 2016. Briefly, a 6-cm segment of small intestine proximal to the ileocecal valve was excised from a donor mouse in a sterilized biosafety cabinet. The tissue was washed with cold saline 3 times, and carefully cut into 1 cm segments that were placed in a petri dish with cold saline. The back neck of the recipient mice was shaved. […] Four representative images were taken for each tissue to quantify the collagen thickness. For each image, 10 different areas were measured by a masked observer with image J Fiji (NIH, Bethesda, MD). Data were analyzed with GraphPad Prism 9 (San Diego, CA, USA).

Clc1ccc(CSC(Cn2ccnc2)c2ccc(Cl)cc2Cl)cc1 (centres unmarked) [sulconazole]
protein production of α-SMA and COL1A1 (Western blot) (CCD-18Co cells [1]): significantly reduced | protein production of α-SMA and COL1A1 (Western blot) [2]: significantly reduced | passage of free drug through the dialysis membrane [3]: not impeded by the dialysis membrane | solubility (physchem): 240 µg/mL (≈ 603 µM) | blood level of ALT and BUN [4]: increased | thickness of the dermis compared to Vehicle ([5]; 10-mg/kg IP every other day): significantly reduced | dose resulting in reduced survival (C57BL/6J mice): 50 mg/kg | Survival (C57BL/6J mice; 15 mg/kg): 5/5 (100%) | Survival (C57BL/6J mice; 30 mg/kg): 5/5 (100%) | Survival (C57BL/6J mice; 40 mg/kg): 5/5 (100%) | MTD (in vivo): 50 mg/kg | elimination via the feces [6]: one of the primary clearance routes

Cc1ccc(=O)n(-c2ccccc2)c1 [pirfenidone]
decrease in the staining of α-SMA and COL1A1 [7]: effective | concentration below which no effect on ACTA2 expression was shown (CCD-18Co cells [8]): 4 mM | concentration below which no effect on ACTA2 expression was shown (LX2 cells): 4 mM | thickness of the dermis compared to Vehicle ([5]; daily oral 100 mg/kg): significantly reduced | collagen layer thickness [9]: 9.1±0.3 μm
